Results reported in US11370795B2, “Process for the synthesis of 6-[(3S,4S)-4-methyl-1-(pyrimidin-2-ylmethyl)pyrrolidin-3-yl]-3-tetrahydropyran-4-yl-7H-imidazo[1,5-a]pyrazin-8-one” (Imara Inc., priority 2017, dated 2022).

Tests used:
[1] = Blood Brain Barrier penetration (plasma and brain concentration); assay type: in vivo
[2] = Stability study of drug substance in sealed pouches; assay type: physicochemical; settings: ambient temperature and 40° C.-45° C. (no humidity control), 3-month period, polyethylene pouches in aluminum pouch
Procedure: A stability study has been completed on Compound P3.1. Samples of Compound P3.1 were aliquoted into double-walled polyethylene pouches, which were tied off and then heat-sealed in an aluminum pouch. Samples were stored at ambient temperature and at 40° C.-45° C. (no humidity control) with testing performed over a 3-month period.

## O=c1[nH]c(CN2CC(Oc3cccnc3)C2)cn2c(C3CCOCC3)ncc12 [Compound (P2)]
[1]; brain, 120 min
  Brain concentration after 120 minutes: detection limit

## C[C@@H]1CN(Cc2ncccn2)C[C@H]1c1cn2c(C3CCOCC3)ncc2c(=O)[nH]1 [Compound P3.1, 6-[(3S,4S)-4-methyl-1-(pyrimidin-2-ylmethyl)pyrrolidin-3-yl]-3-tetrahydropyran-4-yl-7H-imidazo[1,5-a]pyrazin-8-one]
[1]; brain/plasma, 30 min, read-out: Brain/Plasma ratio after 30 minutes
  Kp at 0.5 h: 0.04
[1]; brain/plasma, 120 min, read-out: Brain/Plasma ratio after 120 minutes
  Kp at 2 h: 0.03
[2]
  Changes to appearance or purity of the material: no changes to appearance or purity
